The text below walks through data of PubChem BioAssay (NCI).

Values joined by “and” are separate entries in the source; they are usually repeats but may differ in a detail not shown here. Equal values may be shown once.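 Dose response: 5 concentrations. Exposure: 48 h. Format: 96-well plates. Endpoint: linear interpolation; highest concentration if not reached. Here, GI50 denotes the concentration required for 50% inhibition of growth. TGI: concentration producing complete growth inhibition.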

One test deals with SNB-19 CNS. As to the kind of experiment: NCI-60 cell line screen, 48 h.
With `CN(C)c1c([O-])c(=[N+](C)C)c1=O`, the TGI was above 100 µM.

A further test concerns MCF7 breast. In words: NCI-60 cell line screen, 48 h.
As to `Nc1nccc2c1ccn2-c1ccc(NC(=O)c2ccc(N3CCOCC3)c(C(F)(F)F)c2)cc1`, the GI50 is 0.316 µM and the TGI is 1.41 µM.
`Cc1[nH]c2ccccc2c1-c1cc(-c2cc(-c3c(C)[nH]c4ccccc34)on2)no1` displayed a TGI above 100 µM.
Turning to `Cn1cnc([N+](=O)[O-])c1S(=O)(=O)Oc1ccccc1`, the GI50 is 7.82 µM and the TGI was above 44.3 µM.
Turning to `COc1cc(C2c3cc4c(cc3C(O)C(CO)C2CO)OCO4)cc(OC)c1OC` (stereo unspecified), the GI50 was 0.355 µM and the TGI is above 100 µM.
With `CCCNC(=S)/N=C/c1c(O)c2ccccc2[nH]c1=O`, the TGI is above 100 µM.
`COc1ccc(-c2oc(=O)ccc2-c2cc(OC)c(OC)c(OC)c2)cc1F`: the GI50 is 9.74 µM and the TGI was above 100 µM.
Regarding `O=C(c1ccc(F)c(F)c1Nc1ccc(I)cc1F)N1CC(O)([C@@H]2CCCCN2)C1`, the GI50 is 6.56 µM and > 10 µM; the TGI was 20.1 µM and > 10 µM.
Compound `Oc1cc(O)c2c(c1)OC(c1ccc(O)c(O)c1)C(OC1(c3cc(O)c(O)c(O)c3)Oc3cc(O)cc(O)c3C(O)C1O)C2` (stereo unspecified) yielded a TGI of 40.2 µM.
On to `CCOc1ccc2nc(S/C(=C/C=C(C#N)C#N)c3ccc(C)cc3)sc2c1`, for which the GI50 is 17.8 µM and the TGI is 79.6 µM.
Taken in the same sequence, the figures for `COc1cc(CNCCCN2C(=O)c3ccc4c5c(ccc(c35)C2=O)C(=O)N(CCCNCc2cc(OC)c(OC)c(OC)c2)C4=O)cc(OC)c1OC` were 0.242 µM and 0.643 µM.
For `CC(C)=CCc1cc(O)cc2c1OC(C=C(C)C)C1=C2C(=O)C2=C(NCCS2(=O)=O)C1=O` (stereo unspecified) the same measures were 1.21 µM and 4.92 µM.
With `O=c1[nH]c(=O)n(C2CC(O)C(CO)O2)cc1CO` (stereo unspecified), the GI50 is above 100 µM and the TGI was above 100 µM.
With `Cc1nc2cnc(N)c(C#Cc3cncc(C(=O)Nc4ccc(CN5CCN(C)CC5)c(C(F)(F)F)c4)c3)c2nc1C`, the GI50 was 0.161 µM and the TGI worked out at 4.04 µM.
`O=C1NC(=S)NNC12c1ccccc1-c1ccccc12` yielded a TGI above 10 µM.
`CC(=O)OC12c3ccccc3-c3ccccc3C1C1C(=O)N(C)C(=O)C12Cl` (stereo unspecified) yielded a TGI above 10 µM.
On the same count and under the same terms, the same measure for `COc1ccc(C(O)c2nccn2C)c(OC)c1` (stereo unspecified): above 100 µM; for `C1CSCCSCCS1`: above 100 µM.
On the same count and under the same terms, to `CC1=CC(=O)[C@@H](O)[C@]2(C)[C@H]3[C@@]4(O)OC[C@]35[C@H]([C@@H](C)[C@H]4O)[C@@H](O)C(=O)O[C@@H]5C[C@@H]12` belongs 0.546 µM; to `CCSc1[nH]c(Nc2nc(-c3ccccc3)n(-c3ccccc3)n2)c(C(N)=O)c1C(N)=O`, above 10 µM.
In the case of `COc1ccc2[nH]cc(-c3nc(-c4c[nH]c5ncccc45)cs3)c2c1`, the GI50 is 3.33 µM and the TGI is above 100 µM.
Compound `O=c1cc(-c2ccccc2)[nH]c2c(S)cccc12` returned a TGI above 100 µM.
`N#Cc1c(-c2ccc(F)cc2)c(-c2ccc(F)cc2)nn(CCO)c1=O` came in with a TGI above 100 µM.

The subject of another test is MDA-MB-231 breast. As to the kind of experiment: NCI-60 cell line screen, 48 h.
For `Nc1nccc2c1ccn2-c1ccc(NC(=O)c2ccc(N3CCOCC3)c(C(F)(F)F)c2)cc1`, the GI50 is 0.346 µM and the TGI was 1.47 µM.
In turn, `Cc1[nH]c2ccccc2c1-c1cc(-c2cc(-c3c(C)[nH]c4ccccc34)on2)no1` displayed a TGI above 100 µM.
Turning to `Cn1cnc([N+](=O)[O-])c1S(=O)(=O)Oc1ccccc1`, the GI50 is 15.5 µM and the TGI was 47.9 µM.
Taken in the same sequence, the figures for `COc1cc(C2c3cc4c(cc3C(O)C(CO)C2CO)OCO4)cc(OC)c1OC` (stereo unspecified) were 3.69 µM and above 100 µM.
For `CCCNC(=S)/N=C/c1c(O)c2ccccc2[nH]c1=O`, the TGI is above 100 µM.
As for `COc1ccc(-c2oc(=O)ccc2-c2cc(OC)c(OC)c(OC)c2)cc1F`, the GI50 is 16 µM and the TGI was above 100 µM.
For `O=C(c1ccc(F)c(F)c1Nc1ccc(I)cc1F)N1CC(O)([C@@H]2CCCCN2)C1`, the GI50 was < 0.0254 µM and 0.0955 µM; the TGI is 4.18 µM and > 9.06 µM.
Compound `Oc1cc(O)c2c(c1)OC(c1ccc(O)c(O)c1)C(OC1(c3cc(O)c(O)c(O)c3)Oc3cc(O)cc(O)c3C(O)C1O)C2` (stereo unspecified) came in with a TGI of 45.8 µM.
As for `COC12C=C/C(=C(/C(=O)OCc3ccncc3)C(=O)CCCCCCCCC3(OC)C=C/C(=C(/C(=O)OCc4ccncc4)C(=O)CCCCCCCC1)O3)O2`, the GI50 is 0.686 µM and the TGI worked out at 6.51 µM.
Taken in the same sequence, the figures for `CCOc1ccc2nc(S/C(=C/C=C(C#N)C#N)c3ccc(C)cc3)sc2c1` were 17.8 µM and 43.4 µM.
Taken in the same sequence, the figures for `COc1cc(CNCCCN2C(=O)c3ccc4c5c(ccc(c35)C2=O)C(=O)N(CCCNCc2cc(OC)c(OC)c(OC)c2)C4=O)cc(OC)c1OC` were 0.252 µM and 2.27 µM.
Turning to `CC(C)=CCc1cc(O)cc2c1OC(C=C(C)C)C1=C2C(=O)C2=C(NCCS2(=O)=O)C1=O` (stereo unspecified), the GI50 is 0.527 µM and the TGI is 5.09 µM.
Taken in the same sequence, the figures for `Cc1nc2cnc(N)c(C#Cc3cncc(C(=O)Nc4ccc(CN5CCN(C)CC5)c(C(F)(F)F)c4)c3)c2nc1C` were 0.209 µM and 2.13 µM.
In turn, `O=C1NC(=S)NNC12c1ccccc1-c1ccccc12` came in with a TGI above 10 µM.
`CC(=O)OC12c3ccccc3-c3ccccc3C1C1C(=O)N(C)C(=O)C12Cl` (stereo unspecified) had a TGI above 10 µM.
`C1CSCCSCCS1` registered a TGI above 100 µM.
`CC1=CC(=O)[C@@H](O)[C@]2(C)[C@H]3[C@@]4(O)OC[C@]35[C@H]([C@@H](C)[C@H]4O)[C@@H](O)C(=O)O[C@@H]5C[C@@H]12` showed a TGI of 1.44 µM.
Regarding `CCSc1[nH]c(Nc2nc(-c3ccccc3)n(-c3ccccc3)n2)c(C(N)=O)c1C(N)=O`, the TGI was above 10 µM.
With `COc1ccc2[nH]cc(-c3nc(-c4c[nH]c5ncccc45)cs3)c2c1`, the GI50 was 2.21 µM and the TGI is above 100 µM.
`O=c1cc(-c2ccccc2)[nH]c2c(S)cccc12`: the TGI was above 100 µM.
On the same count and under the same terms, the same measure for `N#Cc1c(-c2ccc(F)cc2)c(-c2ccc(F)cc2)nn(CCO)c1=O`: above 71 µM.
